Test: Organ distribution of ^225Ac complexes following intravenous injection in mice
Format: in vivo, C57BL/6 mice
Procedure: In Vivo Biodistribution of ^225Ac Complexes of Macropa and DOTA. All experiments were approved by the Institutional Animal Care Committee (IACC) of the University of British Columbia and were performed in accordance with the Canadian Council on Animal Care Guidelines. A total of 9 female C57BL/6 mice (6-8 weeks old, 20-25 g) were used for the biodistribution study of each radiometal complex, n=3 for each time point.
Macropa (100 μL of a 1 mg/mL solution in NH4OAc) was diluted with 387 μL of NH4OAc (1 M, pH 7), and an aliquot (203 μL) of ^225Ac(NO3)3 (˜157 kBq) was then added; the pH of this solution was adjusted to 6.5-7 by the addition of 1 M NaOH (210 μL, trace metal grade). After 5 min at ambient temperature, the reaction solution was analyzed by TLC (0.4 M pH 4 sodium citrate as the eluent), which confirmed >95% radiochemical yield. The reaction was allowed to proceed overnight, and the radiochemical yield was again confirmed to be >95% the following morning. At this time, mice were anesthetized by 2% isoflurane, and approximately 100 μL (10-15 kBq) of the [^225Ac(macropa)]^+ complex were injected into the tail vein of each mouse. After injection, mice were allowed to recover and roam freely in their cages, and were euthanized by CO2 inhalation at 15 min, 1 h, or 5 h (n=3 at each time point) post-injection. Blood was collected by cardiac puncture and placed into an appropriate test tube for scintillation counting. Tissues collected included heart, liver, kidneys, lungs, small intestine, large intestine, brain, bladder, spleen, stomach, pancreas, bone, thyroid, tail, urine, and feces. Tissues were weighed and then counted with a calibrated gamma counter (Packard, Cobra II model 5002) using three energy windows: 60-120 keV (window A), 180-260 keV (window B), and 400-480 keV (window C). Counting was performed both immediately after sacrifice and after 7 days; counts were decay corrected from the time of injection and then converted to the percentage of injected dose (% ID) per gram of tissue (% ID/g). […]
The biodistribution studies of [^225Ac(DOTA)]^− and ^225Ac(NO3)3 were carried out as described above for [^225Ac(macropa)]^+, with the following modifications. [^225Ac(DOTA)^− was prepared by adding ^225Ac(NO3)3 (338 μL, 1.1 MBq) to a solution of DOTA (100 μg, 20 mg/mL in H2O) in NH4OAc (467 μL, 0.15 M, pH 7). The pH of the solution was adjusted to 7 using NH4OAc (150 μL, 1 M, pH 7) and the solution was heated at 85° C. for 45 min. RCY >99% was confirmed by TLC as described above. [^225Ac(DOTA)]^− was diluted with saline to a final concentration of 0.05 MBq/100 μL, and 100 μL were injected into each mouse. ^225Ac(NO3)3 (˜58 μL, 0.4 MBq) was diluted and injected in the same manner as [^225Ac(DOTA)]^−. One mouse that was to be euthanized at the 5 h time point in the [^225Ac(DOTA)]^− study died shortly after injection. In the same manner, one mouse that was to be euthanized at the 1 h time point in the ^225Ac(NO3)3 study died.
The in vivo stability [^225Ac(macropa)]^+ was examined by comparing its biodistribution to those of ^225Ac(NO3)3 and [^225Ac(DOTA)]^−. C57BL/6 mice were injected via tail vein with 10-50 kBq of each radiometal complex and were sacrificed after 15 min, 1 h, or 5 h. The amount of ^225Ac retained in each organ was quantified by gamma counting and reported as the percent of injected dose per gram of tissue (% ID/g). The results of these studies are compiled in Tables 1-3. Inadequate stability of an ^225Ac complex leading to the loss of radioisotope in vivo is manifested by the accumulation of ^225Ac in the liver, spleen, and bone of mice.^[11,12,32] […] The biodistribution profile of [^225Ac(macropa)]^+ (FIG. 3B) differs markedly from that of ^225Ac(NO3)3. […] Its biodistribution profile was similar to that of [^225Ac(DOTA)]^− (FIG. 3C), which has been previously shown to retain ^225Ac^3+ in vivo.^[7]

[1] = 15 min post i.v. injection, energy window A (60-120 keV)
[2] = 15 min post i.v. injection, energy window B (180-260 keV)
[3] = 15 min post i.v. injection, energy window C (400-480 keV)
[4] = 1 h post i.v. injection, energy window A (60-120 keV)
[5] = 1 h post i.v. injection, energy window B (180-260 keV)
[6] = 1 h post i.v. injection, energy window C (400-480 keV)
[7] = 5 h post i.v. injection, energy window A (60-120 keV)
[8] = 5 h post i.v. injection, energy window B (180-260 keV)
[9] = 5 h post i.v. injection, energy window C (400-480 keV)
[10] = C57BL/6 mice, i.v., 15 min to 5 h

O=[N+]([O-])[O-].O=[N+]([O-])[O-].O=[N+]([O-])[O-].[225Ac] [^225Ac(NO3)3]
Organ distribution: bladder [1]: 1.477 % ID/g | Organ distribution: blood [1]: 40.966 % ID/g | Organ distribution: bone (femur + joint) [1]: 2.764 % ID/g | Organ distribution: brain [1]: 0.614 % ID/g | Organ distribution: feces [1]: 0.240 % ID/g | Organ distribution: heart [1]: 8.557 % ID/g | Organ distribution: kidneys [1]: 10.468 % ID/g | Organ distribution: large intestines [1]: 1.116 % ID/g | Organ distribution: liver [1]: 22.899 % ID/g | Organ distribution: lungs [1]: 12.757 % ID/g | Organ distribution: pancreas [1]: 2.366 % ID/g | Organ distribution: small intestines [1]: 2.002 % ID/g | Organ distribution: spleen [1]: 22.733 % ID/g | Organ distribution: stomach [1]: 2.348 % ID/g | Organ distribution: tail [1]: 7.459 % ID/g | Organ distribution: thyroids [1]: 4.391 % ID/g | Organ distribution: urine [1]: 5.527 % ID/g | Organ distribution: bladder [2]: 1.6996 % ID/g | Organ distribution: blood [2]: 41.5628 % ID/g | Organ distribution: bone (femur + joint) [2]: 2.7487 % ID/g | Organ distribution: brain [2]: 0.6536 % ID/g | Organ distribution: feces [2]: 0.3857 % ID/g | Organ distribution: heart [2]: 8.3605 % ID/g | Organ distribution: kidneys [2]: 9.6424 % ID/g | Organ distribution: large intestines [2]: 1.1570 % ID/g | Organ distribution: liver [2]: 23.6091 % ID/g | Organ distribution: lungs [2]: 12.9714 % ID/g | Organ distribution: pancreas [2]: 2.2821 % ID/g | Organ distribution: small intestines [2]: 1.9641 % ID/g | Organ distribution: spleen [2]: 24.0497 % ID/g | Organ distribution: stomach [2]: 2.3704 % ID/g | Organ distribution: tail [2]: 8.0722 % ID/g | Organ distribution: thyroids [2]: 9.6295 % ID/g | Organ distribution: urine [2]: 5.0951 % ID/g | Organ distribution: bladder [3]: 1.9351 % ID/g | Organ distribution: blood [3]: 42.3521 % ID/g | Organ distribution: bone (femur + joint) [3]: 3.4560 % ID/g | Organ distribution: brain [3]: 0.6755 % ID/g | Organ distribution: feces [3]: 0.4896 % ID/g | Organ distribution: heart [3]: 9.0992 % ID/g | Organ distribution: kidneys [3]: 14.2266 % ID/g | Organ distribution: large intestines [3]: 1.5716 % ID/g | Organ distribution: liver [3]: 24.1147 % ID/g | Organ distribution: lungs [3]: 14.4797 % ID/g | Organ distribution: pancreas [3]: 2.4405 % ID/g | Organ distribution: small intestines [3]: 2.0956 % ID/g | Organ distribution: spleen [3]: 25.4263 % ID/g | Organ distribution: stomach [3]: 2.4232 % ID/g | Organ distribution: tail [3]: 9.1381 % ID/g | Organ distribution: thyroids [3]: 3.5934 % ID/g | Organ distribution: urine [3]: 19.8282 % ID/g | Organ distribution: bladder [4]: 0.9047 % ID/g | Organ distribution: blood [4]: 20.8234 % ID/g | Organ distribution: bone (femur + joint) [4]: 2.4707 % ID/g | Organ distribution: brain [4]: 0.2995 % ID/g | Organ distribution: feces [4]: 0.2189 % ID/g | Organ distribution: heart [4]: 4.4261 % ID/g | Organ distribution: kidneys [4]: 7.2170 % ID/g | Organ distribution: large intestines [4]: 0.6035 % ID/g | Organ distribution: liver [4]: 39.8269 % ID/g | Organ distribution: lungs [4]: 8.2412 % ID/g | Organ distribution: pancreas [4]: 2.1771 % ID/g | Organ distribution: small intestines [4]: 1.5594 % ID/g | Organ distribution: spleen [4]: 34.8831 % ID/g | Organ distribution: stomach [4]: 1.6211 % ID/g | Organ distribution: tail [4]: 5.7939 % ID/g | Organ distribution: thyroids [4]: 2.5988 % ID/g | Organ distribution: urine [4]: 4.5194 % ID/g | Organ distribution: bladder [5]: 0.8092 % ID/g | Organ distribution: blood [5]: 21.4460 % ID/g | Organ distribution: bone (femur + joint) [5]: 2.7705 % ID/g | Organ distribution: brain [5]: 0.3247 % ID/g | Organ distribution: feces [5]: 0.3300 % ID/g | Organ distribution: heart [5]: 4.5832 % ID/g | Organ distribution: kidneys [5]: 6.8770 % ID/g | Organ distribution: large intestines [5]: 0.5629 % ID/g | Organ distribution: liver [5]: 41.0995 % ID/g | Organ distribution: lungs [5]: 8.4426 % ID/g | Organ distribution: pancreas [5]: 2.1579 % ID/g | Organ distribution: small intestines [5]: 1.5192 % ID/g | Organ distribution: spleen [5]: 37.1540 % ID/g | Organ distribution: stomach [5]: 1.5867 % ID/g | Organ distribution: tail [5]: 6.4201 % ID/g | Organ distribution: thyroids [5]: 5.7426 % ID/g | Organ distribution: urine [5]: 7.0564 % ID/g | Organ distribution: bladder [6]: 2.2929 % ID/g | Organ distribution: blood [6]: 11.3736 % ID/g | Organ distribution: bone (femur + joint) [6]: 2.7213 % ID/g | Organ distribution: brain [6]: 0.4402 % ID/g | Organ distribution: feces [6]: 0.1122 % ID/g | Organ distribution: heart [6]: 3.3464 % ID/g | Organ distribution: kidneys [6]: 6.2070 % ID/g | Organ distribution: large intestines [6]: 0.4366 % ID/g | Organ distribution: liver [6]: 23.6180 % ID/g | Organ distribution: lungs [6]: 5.2078 % ID/g | Organ distribution: pancreas [6]: 1.8508 % ID/g | Organ distribution: small intestines [6]: 3.5548 % ID/g | Organ distribution: spleen [6]: 38.1082 % ID/g | Organ distribution: stomach [6]: 2.3350 % ID/g | Organ distribution: tail [6]: 9.0877 % ID/g | Organ distribution: thyroids [6]: 0.0000 % ID/g | Organ distribution: urine [6]: 104.9103 % ID/g | Organ distribution: bladder [7]: 1.4947 % ID/g | Organ distribution: blood [7]: 1.9886 % ID/g | Organ distribution: bone (femur + joint) [7]: 3.5460 % ID/g | Organ distribution: brain [7]: 0.0452 % ID/g | Organ distribution: feces [7]: 0.9445 % ID/g | Organ distribution: heart [7]: 1.3450 % ID/g | Organ distribution: kidneys [7]: 4.6910 % ID/g | Organ distribution: large intestines [7]: 0.6479 % ID/g | Organ distribution: liver [7]: 59.8156 % ID/g | Organ distribution: lungs [7]: 4.1871 % ID/g | Organ distribution: pancreas [7]: 0.4874 % ID/g | Organ distribution: small intestines [7]: 1.3704 % ID/g | Organ distribution: spleen [7]: 62.9614 % ID/g | Organ distribution: stomach [7]: 2.6131 % ID/g | Organ distribution: tail [7]: 23.4055 % ID/g | Organ distribution: thyroids [7]: −2.7052 % ID/g | Organ distribution: urine [7]: 4.8267 % ID/g | Organ distribution: bladder [8]: 1.5234 % ID/g | Organ distribution: blood [8]: 2.0018 % ID/g | Organ distribution: bone (femur + joint) [8]: 3.8533 % ID/g | Organ distribution: brain [8]: 0.0290 % ID/g | Organ distribution: feces [8]: 1.0201 % ID/g | Organ distribution: heart [8]: 1.3948 % ID/g | Organ distribution: kidneys [8]: 3.8752 % ID/g | Organ distribution: large intestines [8]: 0.6744 % ID/g | Organ distribution: liver [8]: 62.0765 % ID/g | Organ distribution: lungs [8]: 4.3379 % ID/g | Organ distribution: pancreas [8]: 0.4455 % ID/g | Organ distribution: small intestines [8]: 1.2201 % ID/g | Organ distribution: spleen [8]: 65.9117 % ID/g | Organ distribution: stomach [8]: 2.5322 % ID/g | Organ distribution: tail [8]: 25.4744 % ID/g | Organ distribution: thyroids [8]: −4.6044 % ID/g | Organ distribution: urine [8]: 3.3142 % ID/g | Organ distribution: bladder [9]: 3.4975 % ID/g | Organ distribution: blood [9]: 2.1769 % ID/g | Organ distribution: bone (femur + joint) [9]: 3.5851 % ID/g | Organ distribution: brain [9]: 0.0430 % ID/g | Organ distribution: feces [9]: 0.8535 % ID/g | Organ distribution: heart [9]: 1.2018 % ID/g | Organ distribution: kidneys [9]: 4.2061 % ID/g | Organ distribution: large intestines [9]: 1.0259 % ID/g | Organ distribution: liver [9]: 54.1727 % ID/g | Organ distribution: lungs [9]: 5.4923 % ID/g | Organ distribution: pancreas [9]: 0.4643 % ID/g | Organ distribution: small intestines [9]: 1.2922 % ID/g | Organ distribution: spleen [9]: 62.2357 % ID/g | Organ distribution: stomach [9]: 2.0358 % ID/g | Organ distribution: tail [9]: 28.4443 % ID/g | Organ distribution: thyroids [9]: −0.4455 % ID/g | Organ distribution: urine [9]: 5.8548 % ID/g | blood clearance and excretion (in words) [10]: slow blood clearance and excretion | organ accumulation (in words) [10]: large accumulation in the liver and spleen

Reference: patent US20220016277A1, “MACROCYCLIC COMPLEXES OF RADIONUCLIDES AND THEIR USE IN RADIOTHERAPY OF CANCER” (Cornell University, priority 2018, published 2022)
